According to PMC1322272 (2005):

System: 35mer RNA aptamer (RNA, aptamer) GGCGUGUAGGAUAUGCUUCGGCAGAAGGACACGCC
Experiment: fluorescence quenching of ligand
Conditions: 50 mM NaCl, 10 mM MgCl2; 100 mM HEPES, 295 K; 1 µM ligand, RNA titrated

Cc1cc2nc3c(=O)[nH]c(=O)nc-3n(C[C@H](O)[C@H](O)[C@H](O)COP(=O)(O)O)c2cc1C
ΔGassociation: -8.84 ± 0.24 kcal/mol
